Assay results reported in PubChem BioAssay (NCI).
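Results reflect a 48-hour exposure of cells in 96-well plates to compound at five concentrations. GI50 = concentration required for 50% inhibition of growth. TGI is the concentration that stops growth completely.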

Columns and labels:
Test in all cases: inhibition of tumour cell growth, NCI panel, 48 h
SK-MEL-2 melanoma = tested on: SK-MEL-2 melanoma
SF-268 CNS = tested on: SF-268 CNS
OVCAR-8 ovarian = tested on: OVCAR-8 ovarian
MOLT-4 leukemia = tested on: MOLT-4 leukemia
PC-3 prostate = tested on: PC-3 prostate
SF-539 CNS = tested on: SF-539 CNS
T-47D breast = tested on: T-47D breast
SN12C renal = tested on: SN12C renal
SW-620 colon = tested on: SW-620 colon

Compound	GI50 (SK-MEL-2 melanoma) [µM]	TGI (SK-MEL-2 melanoma) [µM]	GI50 (SF-268 CNS) [µM]	TGI (SF-268 CNS) [µM]	GI50 (OVCAR-8 ovarian) [µM]	TGI (OVCAR-8 ovarian) [µM]	GI50 (MOLT-4 leukemia) [nM]	TGI (MOLT-4 leukemia) [µM]	GI50 (PC-3 prostate) [µM]	TGI (PC-3 prostate) [µM]	GI50 (SF-539 CNS) [µM]	TGI (SF-539 CNS) [µM]	GI50 (T-47D breast) [µM]	TGI (T-47D breast) [µM]	GI50 (SN12C renal) [µM]	TGI (SN12C renal) [µM]	GI50 (SW-620 colon) [µM]	TGI (SW-620 colon) [µM]
COc1ccc2c(c1)CCCN2c1c2ccccc2nc2ccccc12	0.813	> 100	0.933	> 100	0.481	> 100	400	> 100	0.354	> 100	0.251	0.741	0.662	> 100	0.73	> 100	0.403	> 100
O=C1c2cccc([N+](=O)[O-])c2C(=O)N1c1ncn[nH]1	–	> 100	–	> 100	–	> 100	–	> 100	–	> 100	–	36.8	–	> 100	–	> 100	–	> 100
Cc1cc2c(cc1Cl)SC1=NN(C)S(=O)N1S2(=O)=O (centres undefined)	> 100	> 100	> 100	> 100	> 100	> 100	> 100000	> 100	> 100	> 100	> 100	> 100	> 100	> 100	> 100	> 100	> 100	> 100
CCCCCCCC(=O)OCC/C=C/C1OC1C1OC(=O)/C=C\C=C\c2nc(oc2C)/C=C(/C)CCC2OC2C1OC(=O)NC(C)=O (centres undefined)	0.0222	0.0647	0.0401	1.74	0.028	0.826	47	1.81	0.0272	1.84	0.0396	0.0819	0.042	0.161	0.0491	0.554	0.0393	1.07
COc1cc[nH]c1/C=C1\C(=O)Nc2ccc(F)c(C#CC3(O)CCNCC3)c21	0.00988	0.464	0.196	0.848	0.172	1.65	63	0.965	0.181	1.95	0.106	0.426	0.819	2.59	0.0626	2.5	0.0832	2.67
COc1ccc(N2C(=O)/C(=C/c3ccc(N(CCC#N)CCC#N)cc3C)N=C2c2cc([N+](=O)[O-])ccc2Cl)cc1	–	39.6	–	> 63.1	–	45.7	–	53.5	–	> 46.4	–	7.22	–	> 100	–	> 56.2	–	> 56.2
Cc1ccc(-c2nc3nc(-c4ccccc4)nc(N4CCCNCC4)c3o2)cc1	2.11	3.84	1.74	3.63	2.06	4.1	1440	3.15	1.69	3.17	1.82	3.31	1.73	3.5	1.56	3.06	1.55	3.17
CCCC(=O)OCC1OC(n2cnc3c(=S)nc[nH]c32)C(OC(=O)CCC)C1OC(=O)CCC (centres undefined)	28.1	> 100	5.95	> 100	4.2	> 100	3060	39.1	3.72	> 100	3.53	> 100	0.794	> 100	4.58	> 100	4.59	> 100
CC/C=C\C[C@H](F)C/C=C1/C(=O)C=C[C@@H]1C/C=C\CCCC(=O)O	6.7	16.9	6.55	22.4	1.21	5.71	1140	12	6.09	15.7	7.21	17	6.37	23.2	7.01	20.5	5.64	21.3
Nc1nc2c(nnn2C2CC(O)C(CO)O2)c(=O)[nH]1 (centres undefined)	20.2	> 100	7.99	> 100	3.71	> 100	2610	> 53	2.55	> 100	3.12	> 41	4.59	> 65.1	5.44	> 100	3.74	> 100
Nc1nc(N(Cc2ccccc2)c2ccccc2)c2cn[nH]c2n1	3.14	> 100	4.21	> 100	6.01	> 100	3210	> 100	4.56	> 100	2.95	> 100	4.34	> 100	5.71	> 100	3.93	> 100
O=C1CCC(N2C(=O)c3ccccc3C2=O)C(=O)N1CO (centres undefined)	> 100	> 100	> 100	> 100	> 100	> 100	36200	> 100	47.2	> 100	30.8	93.6	78	> 100	73.7	> 100	32.4	> 100
CCOC1Oc2ccc(C)cc2C(=O)/C1=C\Nc1ccc(C(N)=O)cc1 (centres undefined)	34.4	> 100	44	> 100	17.7	40.3	46200	> 100	32.9	> 100	18.4	53.2	6.13	> 100	17.6	38.8	15.2	51.2
CC[C@@]1(c2ccccc2)C2=C(CC(C)(C)CC2=O)Nc2[nH]ncc21	> 100	> 100	> 100	> 100	> 100	> 100	> 100000	> 100	> 100	> 100	> 100	> 100	> 100	> 100	> 100	> 100	> 100	> 100
COc1cc2ncn(-c3cc(OCc4cccs4)c(C(N)=O)s3)c2cc1OC	2.08	17	1.95	> 25	1.52	> 17	1070	> 25	3.43	> 25	1.23	> 16.8	6.4	> 25	2.8	> 25	1.04	> 20.3
CCOCC(=O)N[C@H]1CCc2cc(OC)c(OC)c(OC)c2-c2ccc(OC)c(=O)cc21	–	> 15.8	–	> 100	–	17	–	> 52.7	–	> 100	–	0.0328	–	> 100	–	> 100	–	> 100
O=C1Nc2ccccc2C1(c1ccc(O)cc1)c1ccc(O)cc1	22.9	50.6	24.4	77.9	0.273	77.5	26600	98.1	2.71	75	18.5	40.2	0.0474	0.245	0.312	50.6	26.2	83
COc1cc(C(=O)CBr)c(OC)cc1C	–	> 100	–	> 100	–	> 100	–	> 100	–	> 100	–	> 100	–	> 100	–	> 100	–	> 100
C=C(C[C@](O)(C(=O)/C=C/c1ccc(Cl)cc1)C(=O)OC)c1ccccc1	13.3	27.1	2.55	8.13	3.43	12.8	2590	8.35	2.7	9.04	2.12	4.93	1.29	3.65	2.41	6.1	2.05	5.04
O=C(Nc1ccncc1)C(=O)c1cn(S(=O)(=O)c2cccc(F)c2)c2ccccc12	10.3	> 100	10.9	> 100	5.21	> 100	4180	> 100	5.69	> 100	4.41	> 100	4.25	> 100	5.25	> 100	3.02	> 100
